Data: US11434221B2, “Pyrazine-4-carbamate or -urea derivatives as herbicides” (Syngenta Participations AG, priority 2017, dated 2022)

How the values were obtained:
Assay type in all cases: in vivo
Design in all cases: key: 5=total damage to plant; 0=no damage to plant
[1] = system: Alopecurus myosuroides (ALOMY); test: Pre-emergence herbicidal activity, glasshouse pot test; conditions: Rate 1000 g/ha; sprayed one day after sowing; evaluated after 13 days
Procedure, shortened: (§1)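 Seeds sown in standard soil were sprayed one day after sowing (pre-emergence) with active ingredient formulated in acetone/water (50:50) containing 0.5% Tween 20. Plants were grown in a glasshouse (24/16 °C day/night, 14 h light, 65% humidity) and watered twice daily. Damage was scored after 13 days on a 0–5 scale (5 = total damage, 0 = none).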

Avena fatua (AVEFA) [2] = test: as above; conditions: Rate 1000 g/ha; sprayed one day after sowing; evaluated after 13 days
Procedure, shortened: as §1

[3] = system: Echinochloa crus-galli (ECHCG); test: as above; conditions: Rate 1000 g/ha; sprayed one day after sowing; evaluated after 13 days
Procedure, shortened: as §1

Lolium perenne (LOLPE) [4] = test: as above; conditions: Rate 1000 g/ha; sprayed one day after sowing; evaluated after 13 days
Procedure, shortened: as §1

Setaria faberi (SETFA) [5] = test: as above; conditions: Rate 1000 g/ha; sprayed one day after sowing; evaluated after 13 days
Procedure, shortened: as §1

[6] = system: Triticum aestivium (TRZAW); test: as above; conditions: Rate 1000 g/ha; sprayed one day after sowing; evaluated after 13 days
Procedure, shortened: as §1

[7] = system: Alopecurus myosuroides (ALOMY); test: Post-emergence herbicidal activity, glasshouse pot test; conditions: Rate 1000 g/ha; sprayed after 8 days cultivation; evaluated after 13 days
Procedure, shortened: (§2)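 Post-emergence spray, 8-day-old pot-grown plants; vehicle acetone/water 50:50 + 0.5% Tween 20. Glasshouse 24/16° C day/night, 14 h light, 65% RH, watered 2×/day. Visual damage rated day 13, 0–5.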

Avena fatua (AVEFA) [8] = test: as above; conditions: Rate 1000 g/ha; sprayed after 8 days cultivation; evaluated after 13 days
Procedure, shortened: as §2

[9] = system: Echinochloa crus-galli (ECHCG); test: as above; conditions: Rate 1000 g/ha; sprayed after 8 days cultivation; evaluated after 13 days
Procedure, shortened: as §2

Lolium perenne (LOLPE) [10] = test: as above; conditions: Rate 1000 g/ha; sprayed after 8 days cultivation; evaluated after 13 days
Procedure, shortened: as §2

Setaria faberi (SETFA) [11] = test: as above; conditions: Rate 1000 g/ha; sprayed after 8 days cultivation; evaluated after 13 days
Procedure, shortened: as §2

[12] = system: Triticum aestivium (TRZAW); test: as above; conditions: Rate 1000 g/ha; sprayed after 8 days cultivation; evaluated after 13 days
Procedure, shortened: as §2

| SMILES | Control of weed species after pre-emergence application, ALOMY (damage score 0-5) [1] | Control of weed species after pre-emergence application, AVEFA (damage score 0-5) (Avena fatua (AVEFA) [2]) | Control of weed species after pre-emergence application, ECHCG (damage score 0-5) [3] | Control of weed species after pre-emergence application, LOLPE (damage score 0-5) (Lolium perenne (LOLPE) [4]) | Control of weed species after pre-emergence application, SETFA (damage score 0-5) (Setaria faberi (SETFA) [5]) | Control of weed species after pre-emergence application, TRAZW (damage score 0-5) [6] | Control of weed species after post-emergence application, ALOMY (damage score 0-5) [7] | Control of weed species after post-emergence application, AVEFA (damage score 0-5) (Avena fatua (AVEFA) [8]) | Control of weed species after post-emergence application, ECHCG (damage score 0-5) [9] | Control of weed species after post-emergence application, LOLPE (damage score 0-5) (Lolium perenne (LOLPE) [10]) | Control of weed species after post-emergence application, SETFA (damage score 0-5) (Setaria faberi (SETFA) [11]) | Control of weed species after post-emergence application, TRAZW (damage score 0-5) [12] |
| --- | --- | --- | --- | --- | --- | --- | --- | --- | --- | --- | --- | --- |
| CC(C)(C)OC(=O)Nc1ncc(-c2cncnc2)nc1C(F)F [Compound H30] | 0 | 0 | 3 | 1 | 4 | 1 | 1 | 3 | 4 | 2 | 4 | 1 |
| CC(C)(C)OC(=O)N(C(=O)OC(C)(C)C)c1ncc(-c2cncnc2)nc1C(F)F [Compound H31] | 2 | 1 | 2 | 0 | 2 | 0 | 1 | 3 | 5 | 2 | 5 | 1 |
